Among the data in ChEMBL document CHEMBL3507680, “University of Dundee, Gates Library screen for HepG2 cell viability” are cytotoxicity values, retold here.

Structures are written as SMILES.

A short description of the data set: Human HepG2 cell viability assay in 384 well format. Details: dose 125 nL, time 70.5 hour; cytotoxicity at 70.5 h: concentration not given beside the values. In kind it is toxicity, cell-based. As to conditions: HepG2 cells, read-out: Inhibition.
For the compound `O=C(NCC1CN(c2ncccn2)Cc2nccn2C1)c1cccnc1` (centres undefined), the cytotoxicity at 70.5 h was -4.53%.

Consider `Cc1nnn2c1COC(CNCc1ccccn1)C2` (centres undefined), for which the cytotoxicity at 70.5 h was -3.64%.

On to `CC(C)c1ccnc(N[C@H]2COC[C@@H]2N2CCCC2)n1`, for which the cytotoxicity at 70.5 h is -15.2%.

Consider `CN1CCC(CNC(=O)c2cccc(C(F)(F)F)c2)c2ccccc21` (centres undefined), for which the cytotoxicity at 70.5 h was 0.294%.

For `Cc1c[nH]nc1C1CCCN(c2cnccn2)C1` (centres undefined), the cytotoxicity at 70.5 h was -2.27%.

Consider `COc1ccccc1CC(=O)N(C)Cc1cc(C)on1`, for which the cytotoxicity at 70.5 h is -3.86%.

In the case of `COc1cccc(N2CC3(CCN(C(=O)NC(C)C)C3)CC2=O)c1` (centres undefined), the cytotoxicity at 70.5 h was -7.02%.

With `Cc1ncsc1CCN1CCC(N(C)Cc2noc(C(C)C)n2)C1` (centres undefined), the cytotoxicity at 70.5 h amounted to 6.17%.

Take `CS(=O)(=O)Cc1cccc(C(=O)N2CCCC(n3cccn3)C2)c1` (centres undefined): the cytotoxicity at 70.5 h is 17.8%.

With `COCCNC(=O)CCNC(=O)c1ccc(N2CCC(C)=N2)cc1`, the cytotoxicity at 70.5 h was -16%.

For the compound `Cn1cc(C2COC3(CCN(C(=O)c4cccc(O)c4)CC3)C2)cn1` (centres undefined), the cytotoxicity at 70.5 h is -11.7%.

As to `COC(=O)C(NC(=O)C(C)C)c1cc(F)ccc1F` (centres undefined), the cytotoxicity at 70.5 h was -20.7%.

On to `Cc1noc(C)c1CNCC1Cn2nncc2CO1` (centres undefined), for which the cytotoxicity at 70.5 h is -2.84%.

`CCOCCC(=O)NCC1COc2c(cccc2OC)C1` (centres undefined): the cytotoxicity at 70.5 h is -4.38%.

Consider `c1cnnc(N2CCCC2CNCc2csc(-c3ccco3)n2)c1` (centres undefined), for which the cytotoxicity at 70.5 h was -11.5%.

Regarding `Cc1cc(C(=O)N2CCC(c3nccn3CCCN(C)C)CC2)no1`, the cytotoxicity at 70.5 h was found to be 0.885%.

Take `CS(=O)(=O)Cc1nc(CNc2ccc(F)c(F)c2)cs1`: the cytotoxicity at 70.5 h was -6.66%.

As to `COc1cnc(C2(O)CCN(C(=O)c3cccnc3)CC2)c(OC)n1`, the cytotoxicity at 70.5 h was -4.88%.

Take `O=C(NCCCO)NCCc1cc(F)ccc1F`: the cytotoxicity at 70.5 h was -0.605%.

As for `OCc1ccc(Cl)c(NCc2cccnc2)c1`, the cytotoxicity at 70.5 h is 19.4%.

Regarding `Cc1nn(C)c(C)c1C1COCCN1C(=O)NC1CC1` (centres undefined), the cytotoxicity at 70.5 h is 19.2%.

With `N#Cc1csc(CNCCOc2ccccc2)c1`, the cytotoxicity at 70.5 h was determined as 0.519%.

Turning to `CC(C)N1[C@H](Cn2cncn2)C[C@@H]2CN(Cc3cccs3)CC[C@@H]21`, the cytotoxicity at 70.5 h is -0.112%.

As for `CCn1cc(CN2CCCN(C3Cc4ccccc4C3)CC2)cn1`, the cytotoxicity at 70.5 h was -7.57%.

For `COc1cc(C)ccc1OCc1nc(C(=O)N2CCCNC(=O)C2)co1`, the cytotoxicity at 70.5 h was -5.88%.

Consider `COc1ccc(F)cc1CN1CCN(Cc2nccn2C)C(C)C1` (centres undefined), for which the cytotoxicity at 70.5 h came out at 9.37%.

Turning to `Cn1cc(CN2CC[C@H]3O[C@@H](COCc4cccnc4)CC[C@H]32)cn1`, the cytotoxicity at 70.5 h is -12%.

Turning to `CC(C)Oc1ccccc1C1CC(=O)Nc2c1cnn2C` (centres undefined), the cytotoxicity at 70.5 h is -11.9%.

Regarding `N#Cc1cccc(CNCCC(=O)N2CCc3sccc3C2)c1`, the cytotoxicity at 70.5 h was -3.34%.

Consider `Cc1oc(-c2ccco2)nc1CC(=O)N1CCN(CC(C)O)CC1` (centres undefined), for which the cytotoxicity at 70.5 h came out at 11.6%.

Turning to `CCn1nc(C)c2ccn(CC(=O)NCCCOC)c(=O)c21`, the cytotoxicity at 70.5 h is -6.99%.

In the case of `c1ccc(NCc2cn3c(n2)CN(Cc2cccnc2)CC3)nc1`, the cytotoxicity at 70.5 h is -10%.

With `Cc1nn(CCC(=O)N2CCCC(OCc3cccnc3)C2)c(C)c1C` (centres undefined), the cytotoxicity at 70.5 h is -6.47%.

Consider `COc1cccc(CN2CCC(c3nn(CCN)c4nccnc34)C2)c1` (centres undefined), for which the cytotoxicity at 70.5 h was 17%.

As for `N#Cc1ccnc(N2CCC(NCCN3CCCC3)CC2)c1`, the cytotoxicity at 70.5 h is -6.96%.

As for `O=C(c1ccc(Cl)c(Cl)c1)N1CCCCC1C1OCCO1` (centres undefined), the cytotoxicity at 70.5 h was -4.22%.

As for `Cn1cc(C(=O)N2CCCC(CN3CCCC3=O)C2)cn1` (centres undefined), the cytotoxicity at 70.5 h was -7.83%.

As for `Clc1ccc2cccnc2c1CN1CCn2c(nnc2C2CC2)C1`, the cytotoxicity at 70.5 h is -13.3%.

As to `O=C(NCc1cccs1)[C@]12COC[C@H]1CN(c1ncccn1)C2`, the cytotoxicity at 70.5 h was -3.55%.

With `CCC(C)(NCc1nc(C)c(C)o1)c1nccs1` (centres undefined), the cytotoxicity at 70.5 h is 15.6%.

Take `COc1ccccc1OCCc1nnc(NC(=O)C2CC23CCC3)s1` (centres undefined): the cytotoxicity at 70.5 h was -2.4%.

Turning to `CS(=O)(=O)N1CCCCC12CCN(c1nncs1)CC2`, the cytotoxicity at 70.5 h is -1.19%.

Consider `Cc1cccc(OCCC(=O)N2CCCN(CC(N)=O)CC2)c1C`, for which the cytotoxicity at 70.5 h was -12%.

Take `FC(F)(F)C1CN(c2nc(-c3ccccc3)no2)CCO1` (centres undefined): the cytotoxicity at 70.5 h was -14.1%.

As for `CCOC(=O)C1(NCC(=O)Nc2cc(C)ccc2OC)CCCC1`, the cytotoxicity at 70.5 h was found to be 21.1%.

On to `CCN1CCN(C(=O)c2cc(C(=O)OC)nn2-c2ccccc2)CC1`, for which the cytotoxicity at 70.5 h is 0.312%.

Take `O=C(C[C@@H]1COC[C@H]2CN(C(=O)c3ccccn3)C[C@@H]12)N1CCCC1`: the cytotoxicity at 70.5 h was 1.42%.

On to `Cc1n[nH]c(C2CN(C(=O)CCOCC(F)(F)F)CCO2)n1` (centres undefined), for which the cytotoxicity at 70.5 h is -10.1%.

As for `O=C(c1scc2c1OCCO2)N1CCOC(Cc2ccc(F)cc2)C1` (centres undefined), the cytotoxicity at 70.5 h was -0.136%.

In the case of `CN(C)C(C(=O)N1CC(Oc2ccccc2F)C1)c1ccc(F)cc1` (centres undefined), the cytotoxicity at 70.5 h was -0.723%.

For the compound `O=C(NCCCn1nc2ccccn2c1=O)NCC(C1CC1)C1CC1`, the cytotoxicity at 70.5 h is -12.3%.

Take `Cc1nc(C)n(CC2CN(CCn3cccn3)CCO2)n1` (centres undefined): the cytotoxicity at 70.5 h worked out at 31.9%.

Consider `CCOc1ncccc1C(=O)N1CCCC1Cn1cc(C)cn1` (centres undefined), for which the cytotoxicity at 70.5 h is -5.13%.

`CCCn1ncc(CN2C[C@@H]3CCCN3C[C@@H]2CCSC)c1C`: the cytotoxicity at 70.5 h was determined as 8.56%.

Take `COCCN1CCCC12CCN(c1ncccn1)CC2`: the cytotoxicity at 70.5 h was -14.3%.

Regarding `c1ccc(N2CCC(NCCc3ccc(-n4cccn4)cc3)CC2)nc1`, the cytotoxicity at 70.5 h was 21.5%.

Regarding `Cc1cc(NCCc2nnc(N)s2)nc(-c2ccccc2)n1`, the cytotoxicity at 70.5 h is -2.76%.

`O=C(COc1ccccc1F)NCC(O)(c1ccccc1)C1CC1` (centres undefined): the cytotoxicity at 70.5 h was -13.8%.

In the case of `CNC(=O)c1cccc(NC(=O)NCc2ccccc2)c1C`, the cytotoxicity at 70.5 h is -10.1%.

Turning to `CN(C)C[C@]12COC[C@H]1CN(Cc1ccc3ccccc3n1)C2`, the cytotoxicity at 70.5 h is -11.7%.

For the compound `CC(C)(O)CCc1ccc(C(=O)N2CCN(CCS(C)(=O)=O)CC2)cc1`, the cytotoxicity at 70.5 h was 0.886%.

With `CC1(C)CC(CC(=O)N2CC(C)(C)[C@@](C)(O)C2)CC(C)(C)N1`, the cytotoxicity at 70.5 h is 13%.

Take `Cc1noc(C(C)C)c1C(=O)NCCN1CCCCCC1=O`: the cytotoxicity at 70.5 h is -19%.

On to `Cc1ccc(C(=O)NC2CCN(Cc3nc(CC(C)C)no3)CC2)s1`, for which the cytotoxicity at 70.5 h stood at 1.36%.

For `CCC[C@H]1CN(CCS(C)(=O)=O)C[C@@H]1NC(=O)c1cc(CC)on1`, the cytotoxicity at 70.5 h is -2.15%.

Consider `CCn1ccnc1CN(C)c1cc(OC)ncn1`, for which the cytotoxicity at 70.5 h was -8.04%.

Turning to `N#CC1CCCN(c2nc(-c3ccccc3)nc3c2CCNCC3)C1` (centres undefined), the cytotoxicity at 70.5 h was 6.37%.

In the case of `Cn1cnc(S(=O)(=O)N2CC3(CCN(c4ccccc4)C3)C2)c1`, the cytotoxicity at 70.5 h was 20.3%.

Regarding `c1cncc(CNc2ccccc2-c2nn[nH]n2)c1`, the cytotoxicity at 70.5 h was -5.95%.

Turning to `CNC(=O)c1nc(CN2CCOC(Cc3ccc(F)cc3)C2)no1` (centres undefined), the cytotoxicity at 70.5 h was -15.2%.

As for `CN(CCN1CCN(c2ccccc2)CC1)C(=O)Nc1ccccn1`, the cytotoxicity at 70.5 h was 17.7%.

As to `O=C(CN1CCCCC1C1OCCO1)Nc1ccc(F)c(F)c1` (centres undefined), the cytotoxicity at 70.5 h was -2.55%.

As to `O=C(N1CCCC1)N1CCOCC2(C1)CN(c1ccccc1)C(=O)CO2` (centres undefined), the cytotoxicity at 70.5 h was -3.56%.

With `COCc1csc(NC(=O)NCc2ncccc2C)n1`, the cytotoxicity at 70.5 h was 0.235%.

For the compound `Cc1n[nH]c(C)c1C1CCCN1C(=O)c1cc(Br)c[nH]1` (centres undefined), the cytotoxicity at 70.5 h is 12.3%.

As to `CN1CC(c2ccccc2)CC2(CCN(C(=O)c3ccccc3)CC2)C1` (centres undefined), the cytotoxicity at 70.5 h was -5.15%.

Regarding `CN(Cc1ccc2c(c1)OCCO2)Cc1nc2c(cnn2C)c(=O)[nH]1`, the cytotoxicity at 70.5 h was -5.53%.

Regarding `CC(C)CNC(=O)Cn1ccc2ccccc21`, the cytotoxicity at 70.5 h is -0.252%.

Take `Cc1cc(C2CCCN(CCCS(C)(=O)=O)C2)n[nH]1` (centres undefined): the cytotoxicity at 70.5 h is -4.49%.

For the compound `CC(CN1CCOCC1)NC(=O)NCc1ccoc1` (centres undefined), the cytotoxicity at 70.5 h was 4.07%.

As to `CCCS(=O)(=O)N1Cc2nccn2CC(CN2CCCC2)C1` (centres undefined), the cytotoxicity at 70.5 h is -4.76%.

For `COc1cc2nc(C)n(CC(=O)NCCC(C)C)c(=O)c2cc1OC`, the cytotoxicity at 70.5 h was -16.6%.

Regarding `COCc1nc2cc(NCc3ccc(CO)o3)ccc2o1`, the cytotoxicity at 70.5 h was found to be 14.6%.

Consider `CC(C)N1[C@H](Cn2cncn2)C[C@@H]2CNCC[C@@H]21`, for which the cytotoxicity at 70.5 h was determined as 0.707%.

Regarding `Cc1ccc(C(=O)N2CCn3cnc(COCC4CC4)c3C2)cn1`, the cytotoxicity at 70.5 h was -5.4%.

Regarding `CNC(=O)[C@@H]1[C@@H](c2ccccc2)CN2CCN(Cc3ccco3)C[C@H]12`, the cytotoxicity at 70.5 h came to 23.2%.

Regarding `CC(=O)N1CC[C@@H]2CN(Cc3ccncc3)S(=O)(=O)[C@@H]2CC1`, the cytotoxicity at 70.5 h was 0.262%.

Turning to `Cc1ccc(C(=O)N2CCN(Cc3ccccc3)CC2)n1C`, the cytotoxicity at 70.5 h is 21%.

On to `c1csc(-c2cc(CN3CCN(c4nccs4)CC3)no2)c1`, for which the cytotoxicity at 70.5 h is -10.2%.

For `COc1cc(N2CCCC3(CCN(c4cncnc4)C3=O)C2)ncn1` (centres undefined), the cytotoxicity at 70.5 h is -7.92%.

With `CC(C)CN(Cc1ccccn1)Cc1ccccc1OCC(=O)O`, the cytotoxicity at 70.5 h was -9.42%.

Turning to `CC(C)(C)c1nnc(CN2CCCC(c3cc(C(N)=O)[nH]n3)C2)o1` (centres undefined), the cytotoxicity at 70.5 h was 10.9%.

For `CCNc1cc2c(nn1)CCN(C(=O)c1cc3ccccc3[nH]c1=O)C2`, the cytotoxicity at 70.5 h is -12.3%.

Turning to `CO[C@H]1CN(C(=O)c2ccc3oc(C)cc3c2)C[C@@]12CCCO2`, the cytotoxicity at 70.5 h is -3.4%.

As for `Cc1cc(CNC(=O)N2CCN(C(C)c3cccnc3)CC2)c(C)o1` (centres undefined), the cytotoxicity at 70.5 h was -0.922%.

In the case of `CC(Cn1cccn1)NC(=O)N1CCN(Cc2ccncc2)CC1` (centres undefined), the cytotoxicity at 70.5 h was -5.78%.

`CCc1cc(O)n2nc(C3CCN(C(=O)c4ccncc4)CC3)cc2n1`: the cytotoxicity at 70.5 h came to 20.6%.

As to `CC(C)c1cc(NC(=O)CN2CCC(N3CCCCC3)CC2)on1`, the cytotoxicity at 70.5 h is -1.37%.

For the compound `CCC(=O)N1CCC2(CC1)C(c1cccnc1)CC(=O)N2CCOC` (centres undefined), the cytotoxicity at 70.5 h came out at 1.53%.
